# Data as given in patent US20260265222A1, “1H-PYRROLE-2-AMIDE DERIVATIVE, PHARMACEUTICAL COMPOSITION AND METHOD FOR TREATING AND/OR PREVENTING YTHDC1-RELATED DISEASES” (priority 2023, published 2026).
# Columns and labels:
# [1] = molecular target: T1, GST-YTHDC1 (345-509) protein (Homo sapiens, UniProt Q96MU7); assay: Fluorescence polarization-based in vitro enzyme-level test against YTHDC1; format: binding; conditions: 30 nM GST-YTHDC1 (345-509), FAM-labeled m6A-modified single-stranded oligonucleotide, 18° C., 4 hours; read-out: IC50 (Inhibitory Activity against YTHDC1)
# T1 construct: GST-YTHDC1 (345-509) protein
# [2] = system: AML cells (MV4-11, HL-60, MOLM-13, THP-1, KG-1, U937, OCI-AML3); assay: Detection of cell proliferation by MTT assay; format: cell-based; conditions: 72 h, range over the cell lines (FIG. 1a), read-out: IC50 values, inhibition of proliferation of AML cells
# Protocol: AML cells (MV4-11, HL-60, MOLM-13, THP-1, KG-1, U937, and OCI-AML3) were seeded in 96-well plates at 10,000-15,000 cells per well, and then a series of concentration gradients of YL-5092 (i.e., Compound 29) were added for culture for 72 h. 20 μL of MTT solution ([…]) was added to each well and incubated for 2-4 hours, followed by the addition of 50 μL of 20% SDS solution and incubation overnight to dissolve the formazan. The absorbance value was then read at 570 nm on a microplate reader, and the IC50 value of YL-5092 was calculated using GraphPad Prism 8.0.
# leukaemia cell MOLM-13 [3] = assay: Cell cycle detection by flow cytometry (PI); format: cell-based; conditions: MOLM-13, 0.5-2 μM, 48 h (FIG. 1b)
# Protocol: To detect the effect of the small molecule YL-5092 on the cell cycle of leukaemia cell MOLM-13, MOLM-13 cells were evenly seeded in 12-well plates and treated with different concentration gradients of YL-5092 (0.5-2 μM) for 48 h. After collection, the cells were washed once with ice-cold PBS and fixed with 70% ice-cold ethanol for 12 h. Before analysis on the flow cytometer, the cells were washed twice with ice-cold PBS and then incubated with PI reagent for 30 min, protected from light.
# leukaemia cell MOLM-13 [4] = assay: Differentiation detection by flow cytometry (PE-CD11b, APC-CD14); format: cell-based; conditions: MOLM-13, 0.5-2 μM, 5 days (FIG. 1c)
# Protocol: To detect the effect of the small molecule YL-5092 on the differentiation of leukaemia cell MOLM-13, MOLM-13 cells were evenly seeded in 12-well plates and treated them with different concentration gradients of YL-5092 (0.5-2 μM) for 5 days. After collection, the cells were washed twice with ice-cold PBS, and 2 μL of PE-CD11b antibody and 2 μL of APC-CD14 antibody were added for incubation for 30 min, protected from light, then washed twice with ice-cold PBS, and finally analyzed on the flow cytometer.
# [5] = system: leukaemia cells MOLM-13, MV4-11, THP-1, and U937; assay: Apoptosis detection by flow cytometry (APC-Annexin V, 7-AAD); format: cell-based; conditions: MOLM-13, MV4-11, THP-1, U937; 0.5-2 μM, 5 days (FIG. 1d)
# Protocol: To detect the effect of the small molecule YL-5092 on the apoptosis of leukaemia cells MOLM-13, MV4-11, THP-1, and U937, MOLM-13, MV4-11, THP-1, and U937 cells were evenly seeded in 12-well plates and treated them with different concentration gradients of YL-5092 (0.5-2 μM) for 5 days. After collection, the cells were washed twice with ice-cold PBS, and 5 μL of APC-Annexin V antibody and 5 μL of 7-AAD were added for incubation for 15-30 min, protected from light, and finally analyzed on the flow cytometer.
Compound,IC50 [1] [nM],IC50 [2] [nM],AML cell cycle arrest (leukaemia cell MOLM-13 [3]),AML cell differentiation (leukaemia cell MOLM-13 [4]),AML cell apoptosis [5]
O=C(Nc1ccc(-c2cncs2)cc1)c1cc(C(=O)c2ccccc2C(F)(F)F)c[nH]1 [Compound 29],7,280 to 2870,significantly induce AML cell cycle arrest in the G0/G1 phase,induce AML cell differentiation,apoptosis
CCN(C)c1ncc(-c2ccc(NC(=O)c3cc(C(=O)c4ccccc4C(F)(F)F)c[nH]3)cc2)o1 [Compound 103],14,–,–,–,–
CN1CCN2c3ccc(NC(=O)c4cc(C(=O)c5ccccc5C(F)(F)F)c[nH]4)cc3OCC2C1 (stereo not drawn) [Compound 92],409,–,–,–,–
CC(=O)c1ccccc1-c1nccc2[nH]c(C(=O)Nc3ccc(-c4cncs4)cc3)cc12 [Compound 51],> 50000,–,–,–,–
Cc1ncc(-c2ccc(NC(=O)c3cc(C(=O)c4ccccc4C(F)(F)F)c[nH]3)cc2)s1 [Compound 32],11,–,–,–,–
